# Measured values as given in Sander's compilation of Henry's law constants (doi:10.1016/j.chemosphere.2015.07.075).
# Assay: Henry solubility constant Hcp at 298.15 K (mol/(m3 Pa))
# Details: reference: Copolovici and Niinemets (2015)
row,SMILES,Henry solubility constant Hcp
1,C=C1CCCC2(C)C3CCC12CC3(C)C (stereo not drawn) [β-neoclovene],0.00029
2,CC1=CCC2C3C1C2(C)CCCC3(C)C (stereo not drawn) [α-longipinene],0.00034
3,C=C1[C@H]2C[C@H]3[C@@H](C(C)C)CC[C@]1(C)[C@H]3C2 [isosativene],0.00039
4,C=C(C)C1CCC2=CCCC(C)C2(C)C1 (stereo not drawn) [valencene],0.00032
5,CC1C=CCC2(C)C3CCC12CC3(C)C (stereo not drawn) [γ-neoclovene],0.00029
6,C=C/C(C)=C/C/C=C(\C)CCC=C(C)C [α-farnesene],0.00034
7,CC(=O)O[C@H]1C[C@H]2CC[C@]1(C)C2(C)C [bornyl acetate],0.00038
8,C=CC(C)(O)CC/C=C(\C)CCC=C(C)C (stereo not drawn) [nerolidol],0.00032
9,C=C(C)[C@H]1C=C2[C@H](C)CC[C@@H]2[C@H](C)CC1 [γ-gurjunene],0.00033
10,CC1=CCCC2(C)C3CCC12CC3(C)C (stereo not drawn) [α-neoclovene],0.00029
11,C/C1=C\CC/C(C)=C/CC(C)(C)/C=C/C1 [α-humulene],0.00029
12,CC1=CCC23C[C@H]1C(C)(C)[C@H]2CC[C@@H]3C [α-cedrene],0.00028
13,C=C1CC/C=C(\C)CC[C@H]2[C@H]1CC2(C)C [β-caryophyllene],0.00037
